Data set [1] deals with T1, RORα (Homo sapiens, UniProt P35398).
T1 construct: HEK293T cells co-transfected with a full-length RORα gene and a luciferase reporter gene; expressed in transfected cells; host or cells: HEK293T
T1 sequence (P35398 1-523): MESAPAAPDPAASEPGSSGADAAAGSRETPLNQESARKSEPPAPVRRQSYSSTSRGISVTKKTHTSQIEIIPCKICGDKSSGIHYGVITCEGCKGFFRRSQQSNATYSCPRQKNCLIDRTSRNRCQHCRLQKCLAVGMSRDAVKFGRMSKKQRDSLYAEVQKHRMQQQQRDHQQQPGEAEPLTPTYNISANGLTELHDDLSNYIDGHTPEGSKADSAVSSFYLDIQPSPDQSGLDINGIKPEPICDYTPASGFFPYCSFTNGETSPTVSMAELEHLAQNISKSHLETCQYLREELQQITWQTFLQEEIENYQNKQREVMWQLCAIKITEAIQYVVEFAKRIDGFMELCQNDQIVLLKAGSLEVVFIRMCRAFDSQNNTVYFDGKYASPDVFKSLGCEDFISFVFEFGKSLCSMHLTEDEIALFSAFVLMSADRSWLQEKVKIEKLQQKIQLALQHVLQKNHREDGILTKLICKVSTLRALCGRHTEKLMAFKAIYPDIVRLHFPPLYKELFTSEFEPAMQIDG
Description: Luciferase reporter assay (G6Pase or FGF21 promoter) in HEK293T cells cotransfected with RORα. It is filed as cell-based. To be noted: Fig. S34. As for the experimental part: HEK293T cells were transfected with Lipofectamine 8000 (ThermoFisher) strictly following the manufacturer’s instructions. Cotransfected HEK293T cells with RORα or RORγ plasmid and a reporter consisting of the G6Pase or FGF21 promoters upstream of a luciferase reporter gene. 500 ng plasmid DNA was transfected into each well of 24 well-plate 24 h after the transfection, DMSO or Gala-SR and SR1078 (5 µmol/L) was added and incubated for 24 h. The Lumicycle instrument detects luminescence and records the numerical value.
(Reporter assays use an easily measured gene product as a stand-in for the process of interest.)

Data set [2] has as its system Per2-dLuc and Bmal1-dLuc U2OS cells. Briefly: Real-time bioluminescence monitoring of Per2-dLuc and Bmal1-dLuc U2OS cells. It is filed as cell-based, human. Conditions: U2OS reporter cells, 5 μmol/L, vs DMSO. As for the experimental part:
Two clonal circadian reporter cell lines, Bmal1-dLuc and Per2-dLuc, were established and used in this study.[36] These two cell lines display robust cellular rhythmicity with near anti-phasic oscillation of bioluminescence expression. The lentivirus preparation, transduction of U2OS cells and selection of the knockout candidates with puromycin (at […] concentration) were performed using a previously published protoco.[37] LumiCycle (Actimetrics, Inc., Evanston, IL) detect for U2OS cells stably expressing Bmal1-dLuc and Per2-dLuc cells were seeded on an opaque 24-well plate. When the cells are full, which were treated with dexamethasone (DEX) (100 nmol/L final) for 2 h for resetting, 2 h later, the media of cells were replaced with bioluminescence recording media having DMEM culture medium (Gibco 21063029, 500 mL), 70 mL 12% FBS. Luciferin (0.1 mmol/L final) was added fresh to the bioluminescence media. Molecules at determined concentrations were supplied to the recording media (final DMSO concentration is 0.1%).

The nature of data set [3]: Kinetic solubility test. Conditions: water, 25 °C, kinetic from dmso stock. The format is physicochemical. From the text:
Solubility(μmol/L)=Areafiltered×DFfiltered/Areastd×DFstd×[std]×DFstd

Values after ≈ are worked out from the molar mass of the structure shown.

In general, solubility (kinetic) refers to solubility judged after dilution from a stock solution rather than from solid.

As to `Cc1ccc(C(=O)Nc2ccc(C(O)(C(F)(F)F)C(F)(F)F)cc2)cc1` [compound 9, reference compound], the RORα transcriptional activity result in data set [1] was “successful inhibition”. Also, in data set [2], the circadian rhythm amplitudes entry is reported as “downregulate the amplitudes” and the “period or phase of the circadian rhythm” value is “without disrupting the fundamental period or phase”.

Take `O=C(Nc1ccc(C(OCO[C@H]2O[C@H](CO)[C@@H](O)[C@H](O)[C@@H]2O)(C(F)(F)F)C(F)(F)F)cc1)c1ccc(C(F)(F)F)cc1` [Mann-SR]: in data set [3], the solubility (kinetic) at 2 h is 198 µM (≈ 124 µg/mL). The same measure, in the same setting: then `O=C(Nc1ccc(C(OCO[C@@H]2O[C@H](CO)[C@@H](O[C@H]3O[C@H](CO)[C@@H](O)[C@H](O)[C@H]3O)[C@H](O)[C@H]2O)(C(F)(F)F)C(F)(F)F)cc1)c1ccc(C(F)(F)F)cc1` [Malt-SR], with 286 µM (≈ 225 µg/mL).

The values above are taken from article PMC12575728, “Galactose-modified small molecule modulator targets RORα to enhance circadian rhythm and alleviate periodontitis-associated alveolar bone loss” (Bone Research, 2025).
